In ChEMBL document CHEMBL3132857, “Design, synthesis and biological evaluation of novel indano- and thiaindano-pyrazoles with potential interest for Alzheimer's disease” (Medchemcomm, 2013) one finds inhibition, Ki and IC50 data, which are given here for 18 compounds.

pIC50, pKi: −log10 of the molar value.

Assay [1] addresses Acetylcholinesterase (Electrophorus electricus) (UniProt O42275). Briefly: Inhibition of electric eel AChE at 10 uM using acetylthiocholine chloride by spectrophotometry.
Assay [2] concerns the target T1, Acetylcholinesterase (Homo sapiens, UniProt P22303). As to the kind of experiment: Inhibition of human erythrocyte AChE at 10 uM using acetylthiocholine chloride by spectrophotometry.
For assay [3], the target named is T2, Acetylcholinesterase (Electrophorus electricus, UniProt O42275). Briefly: Non-competitive inhibition of electric eel AChE using acetylthiocholine chloride by Lineweaver-Burk plot method and Ellman's method based spectrophotometry.
For assay [4], the target named is T1, Acetylcholinesterase. Briefly: Inhibition of human erythrocyte AChE using acetylthiocholine chloride by spectrophotometry.
Assay [5] addresses T2, Acetylcholinesterase. As to the kind of experiment: Inhibition of electric eel AChE using acetylthiocholine chloride by spectrophotometry.
The target in assay [6] is Butyrylcholinesterase (Equus caballus) (UniProt Q9N1N9). As to the kind of experiment: Inhibition of horse serum BuChE at 10 uM using butyrylthiocholine chloride by spectrophotometry.
For a further assay, the target named is Butyrylcholinesterase (Equus caballus, UniProt Q9N1N9). Briefly: Inhibition of horse serum BuChE using butyrylthiocholine chloride by spectrophotometry.
Assay [7] addresses T2, Acetylcholinesterase. As to the kind of experiment: Reversible mixed type inhibition of electric eel AChE using acetylthiocholine chloride by Lineweaver-Burk plot method and Ellman's method based spectrophotometry.

`O=C(CN1CCN(Cc2ccccc2)CC1)NC1c2ccsc2-c2c1cnn2-c1ccccc1` (stereo not drawn): the inhibition in assay [1] came out at 31%; against Acetylcholinesterase [2], 36%.
At Acetylcholinesterase [3], `Cn1ncc2c1-c1c(Br)sc(Br)c1C2NC(=O)CN1CCN(Cc2ccccc2F)CC1` (stereo not drawn) showed a pKi of 6.37. Moreover, the pIC50 is 6.06 at Acetylcholinesterase [4] and 6.62 against Acetylcholinesterase [5]. Besides, the inhibition in assay [6] came to 30%.
Turning to `Cn1ncc2c1-c1sccc1C2NC(=O)CN1CCN(Cc2ccccc2F)CC1` (stereo not drawn), the pIC50 against Acetylcholinesterase [4] and against Acetylcholinesterase [5] was 5.88 each time.
`COc1cc2c(cc1OC)C(NC(=O)CN1CCN(Cc3ccccc3)CC1)c1cn[nH]c1-2` (stereo not drawn): the pIC50 at Acetylcholinesterase [5] is 5.53. On Acetylcholinesterase [2], this compound displayed an inhibition of 49%.
Take `Cn1ncc2c1-c1c(Br)sc(Br)c1C2NC(=O)CN1CCN(Cc2ccccc2)CC1` (stereo not drawn): the pIC50 against Butyrylcholinesterase is 5.11; on Acetylcholinesterase [4] it was 6.48; against Acetylcholinesterase [5], 7.00. This compound gave a pKi at Acetylcholinesterase [7] of 6.63.
Turning to `Cn1ncc2c1-c1sccc1C2NC(=O)CN1CCN(Cc2ccccc2)CC1` (stereo not drawn), the pIC50 against Acetylcholinesterase [4] is 6.03; on Acetylcholinesterase [5], 5.72.
In the case of `O=C(CN1CCN(Cc2ccccc2F)CC1)NC1c2cnn(-c3ccccc3)c2-c2c(Br)sc(Br)c21` (stereo not drawn), the values for the inhibition (in assay [1]; at Acetylcholinesterase [2]) were 27% and 15%, respectively.
Turning to `COc1cc2c(cc1OC)C(NC(=O)CN1CCN(Cc3ccccc3F)CC1)c1cnn(-c3ccccc3)c1-2` (stereo not drawn), the figures for the pIC50 on Acetylcholinesterase [4] and on Acetylcholinesterase [5] were 5.61 and 6.68, respectively. Besides, in assay [6], the inhibition turned out to be 8%.
For the compound `COc1cc2c(cc1OC)C(NC(=O)CN1CCN(Cc3ccccc3F)CC1)c1cnn(C)c1-2` (stereo not drawn), the pIC50 is 5.61 against Acetylcholinesterase [4] and 6.14 at Acetylcholinesterase [5]. This compound yielded an inhibition in assay [6] of 1%.
On to `O=C(CN1CCN(Cc2ccccc2F)CC1)NC1c2cn[nH]c2-c2sccc21` (stereo not drawn), for which the pIC50 at Acetylcholinesterase [5] was 5.34. In addition, the inhibition against Acetylcholinesterase [2] was 42%.
As for `COc1cc2c(cc1OC)C(NC(=O)CN1CCN(Cc3ccccc3)CC1)c1cnn(-c3ccccc3)c1-2` (stereo not drawn), the pIC50 at Acetylcholinesterase [4] was 5.52; at Acetylcholinesterase [5], 5.87.
For the compound `O=C(CN1CCN(Cc2ccccc2)CC1)NC1c2cn[nH]c2-c2sccc21` (stereo not drawn), in assay [1], the inhibition was determined as 49%. The pIC50 against Acetylcholinesterase [4] is 5.04.
For `COc1cc2c(cc1OC)C(NC(=O)CN1CCN(Cc3ccccc3)CC1)c1cnn(C)c1-2` (stereo not drawn), the pIC50 against Acetylcholinesterase [4] is 5.74; at Acetylcholinesterase [5], 5.89.
In the case of `O=C(CN1CCN(Cc2ccccc2)CC1)NC1c2cnn(-c3ccccc3)c2-c2c(Br)sc(Br)c21` (stereo not drawn), the pIC50 at Acetylcholinesterase [4] is 6.06; at Acetylcholinesterase [5] it was 6.54. Also, the inhibition in assay [6] was determined as 37%.
At Acetylcholinesterase [5], `O=C(CN1CCN(Cc2ccccc2F)CC1)NC1c2ccsc2-c2c1cnn2-c1ccccc1` (stereo not drawn) showed a pIC50 of 5.39. The inhibition at Acetylcholinesterase [2] was 42%.
For `O=C(CN1CCN(Cc2ccccc2)CC1)NC1c2cn[nH]c2-c2c(Br)sc(Br)c21` (stereo not drawn), the pIC50 against Acetylcholinesterase [4] is 5.95; against Acetylcholinesterase [5], 5.05.
In turn, `COc1cc2c(cc1OC)C(NC(=O)CN1CCN(Cc3ccccc3F)CC1)c1cn[nH]c1-2` (stereo not drawn) had a pIC50 at Acetylcholinesterase [5] of 5.40. Also, the inhibition against Acetylcholinesterase [2] was 50%.
In turn, `O=C(CN1CCN(Cc2ccccc2F)CC1)NC1c2cn[nH]c2-c2c(Br)sc(Br)c21` (stereo not drawn) had a pIC50 against Acetylcholinesterase [5] of 5.34. Also, on Acetylcholinesterase [2], the inhibition came to 42%.
